Legend:
[1] = test system: human chronic myelogenous leukemic K562 cells; assay: growth inhibition of K562 cells (MTT viability assay); format: cell-based; conditions: 1 hour drug exposure at 37° C.; 5-6 days; MTT
Experimental: The ability of the compounds of the present invention to inhibit the growth of human chronic myelogenous leukemic K562 cells was determined as follows.
The incubation was terminated by centrifugation (5 minutes, 300 g) and the cells washed once with drug-free medium.
Following the appropriate drug treatment, the cells were transferred to 96-well microtiter plates, 10^4 cells per well, 8 wells per sample. Plates were then kept in the dark at 37° C. in a humidified atmosphere containing 5% CO2. […] Following incubation of the plates of 5-6 days (to allow control cells to increase in the number by 10 fold) 20 μL of a 5 mg/mL solution of MTT in phosphate buffered saline was added to each well and the plates further incubated for 5 h. The plates were then centrifuged for 5 minutes at 300 g and the bulk of the medium pipetted from the cell pellet leaving 10-20 μL per well. 200 μL DMSO was added to each well and the samples agitated to ensure complete mixing. The optical density was then read at a wavelength of 550 nm on a Titertek Multiscan ELISA plate reader and the dose-response curve constructed.

MALME-3M = assay: NCI cytotoxicity screen (SRB); format: cell-based, human
Experimental: (§1) Compounds 6, 7, 9 and 10 were tested for cytotoxic properties by the National Cancer Institute, Bethesda, Md. The anticancer drug screen utilized a panel of 60 human tumor cell lines organized into subpanels representing leukemia, melanoma, and cancers of the lung, colon, kidney, ovary and central nervous system and is described by Monks et al. (1991) Journal of the National Cancer Institute 83, 757, which is incorporated herein by reference.
(§2) Cell lines were inoculated onto microtiter plates and preincubated for 24-28 hours. 100 μL aliquots of each compound were added to the appropriate microtiter plate wells in each of five 10-fold dilutions starting from a maximum concentration of 10^-4 M in water or DMSO. Cultures were then incubated for an additional 48 hours. Cells were then fixed in situ, followed by staining with sulforhodamine B (SRB), which binds to basic amino acids of cellular macromolecules. The solubilized stain was measured spectrophotometrically to determine relative cell growth or viability in treated and untreated cells. The monoimidazole analogs of Compounds 6, 7, 9 and 10 and the formamido analog corresponding to Compounds 7 and 10 are devoid of activity against the panel of cancer cell lines in Table III.

EKVX = assay: NCI cytotoxicity screen (SRB); format: cell-based, human
Experimental: as §1, §2

KM20L2 = assay: NCI cytotoxicity screen (SRB); format: cell-based, human; conditions: 48 h; Colon Cancer KM20L2
Experimental: as §1, §2

Molt-4 = assay: NCI cytotoxicity screen (SRB); format: cell-based, human; conditions: 48 h; Leukemia Molt-4
Experimental: as §1, §2

HT29 = assay: NCI cytotoxicity screen (SRB); format: cell-based, human
Experimental: as §1, §2

U251 = assay: NCI cytotoxicity screen (SRB); format: cell-based, human
Experimental: as §1, §2

COLO-205 = assay: NCI cytotoxicity screen (SRB); format: cell-based, human
Experimental: as §1, §2

SW-620 = assay: NCI cytotoxicity screen (SRB); format: cell-based, human
Experimental: as §1, §2

HOP-62 = assay: NCI cytotoxicity screen (SRB); format: cell-based, human; conditions: 48 h; Non-Small Cell Lung Cancer HOP-62
Experimental: as §1, §2

XF498 = assay: NCI cytotoxicity screen (SRB); format: cell-based, human
Experimental: as §1, §2

HCC-2998 = assay: NCI cytotoxicity screen (SRB); format: cell-based, human
Experimental: as §1, §2

SF-268 = assay: NCI cytotoxicity screen (SRB); format: cell-based, human; conditions: 48 h; CNS Cancer SF-268
Experimental: as §1, §2

NCI-H226 = assay: NCI cytotoxicity screen (SRB); format: cell-based, human
Experimental: as §1, §2

K-562 = assay: NCI cytotoxicity screen (SRB); format: cell-based, human; conditions: 48 h; Leukemia K-562
Experimental: as §1, §2

DMS-114 = assay: NCI cytotoxicity screen (SRB); format: cell-based, human
Experimental: as §1, §2

KM12 = assay: NCI cytotoxicity screen (SRB); format: cell-based, human
Experimental: as §1, §2

SF-539 = assay: NCI cytotoxicity screen (SRB); format: cell-based, human
Experimental: as §1, §2

NCI-H460 = assay: NCI cytotoxicity screen (SRB); format: cell-based, human
Experimental: as §1, §2

A549/ATCC = assay: NCI cytotoxicity screen (SRB); format: cell-based, human
Experimental: as §1, §2

NCI-H322M = assay: NCI cytotoxicity screen (SRB); format: cell-based, human
Experimental: as §1, §2

DMS-273 = assay: NCI cytotoxicity screen (SRB); format: cell-based, human
Experimental: as §1, §2

HCT-15 = assay: NCI cytotoxicity screen (SRB); format: cell-based, human
Experimental: as §1, §2

NCI-H23 = assay: NCI cytotoxicity screen (SRB); format: cell-based, human
Experimental: as §1, §2

DLD-1 = assay: NCI cytotoxicity screen (SRB); format: cell-based, human; conditions: 48 h; Colon Cancer DLD-1
Experimental: as §1, §2

SF-295 = assay: NCI cytotoxicity screen (SRB); format: cell-based, human; conditions: 48 h; CNS Cancer SF-295
Experimental: as §1, §2

HCT-116 = assay: NCI cytotoxicity screen (SRB); format: cell-based, human; conditions: 48 h; Colon Cancer HCT-116
Experimental: as §1, §2

[2] = 48 h, Non-Small Cell Lung Cancer EKVX
[3] = 48 h, Non-Small Cell Lung Cancer NCI-H460
[4] = 48 h, Non-Small Cell Lung Cancer A549/ATCC
[5] = 48 h, Non-Small Cell Lung Cancer NCI-H322M
[6] = 48 h, Non-Small Cell Lung Cancer NCI-H23

SMILES: CN(C)CCNC(=O)c1nc(NC(=O)c2nc(NC(=O)c3nc(NC(=O)c4ccc(N(CCCl)CCCl)cc4)cn3C)cn2C)cn1C [Compound 7, N-(N',N'-dimethylaminoethyl)-1-methyl-4-{1-methyl-4-[4-(4,4-bis-(2-chloroethyl)aminobenzamido)-1-methylimidazole-2-carboxamido]imidazole-2-carboxamido}imidazole-2-carboxamide]
- IC50 [1]: 0.3 µM
- IC50 (MALME-3M; 48 h, Melanoma MALME-3M): 2.63 µM
- IC50 (MALME-3M; MALME-3M, subsequent test date): 4.34 µM
- IC50 (EKVX; [2]): 0.88 µM
- IC50 (EKVX; EKVX, subsequent test date): 1.7 µM
- IC50 (KM20L2): 7.92 µM
- IC50 (Molt-4): 0.98 µM
- IC50 (HT29; 48 h, Colon Cancer HT29): 2.3 µM
- IC50 (HT29; HT29, subsequent test date): 1.97 µM
- IC50 (U251; U251, subsequent test date): 0.5 µM
- IC50 (COLO-205; 48 h, Colon Cancer COLO-205): 0.97 µM
- IC50 (COLO-205; COLO-205, subsequent test date): 0.56 µM
- IC50 (SW-620; 48 h, Colon Cancer SW-620): 0.79 µM
- IC50 (SW-620; SW-620, subsequent test date): 0.63 µM
- IC50 (HOP-62): 1.17 µM
- IC50 (XF498; 48 h, CNS Cancer XF498): 0.62 µM
- IC50 (XF498; XF498, subsequent test date): 0.65 µM
- IC50 (HCC-2998; 48 h, Colon Cancer HCC-2998): 0.68 µM
- IC50 (HCC-2998; HCC-2998, subsequent test date): 0.89 µM
- IC50 (SF-268): 0.77 µM
- IC50 (NCI-H226; NCI-H226, subsequent test date): 5.54 µM
- IC50 (K-562): 0.58 µM
- IC50 (DMS-114; DMS-114, subsequent test date): 0.54 µM
- IC50 (KM12; 48 h, Colon Cancer KM12): 0.96 µM
- IC50 (KM12; KM12, subsequent test date): 0.75 µM
- IC50 (SF-539; SF-539, subsequent test date): 0.59 µM
- IC50 (NCI-H460; [3]): 5.67 µM
- IC50 (NCI-H460; NCI-H460, subsequent test date): 4.12 µM
- IC50 (A549/ATCC; [4]): 5.64 µM
- IC50 (A549/ATCC; A549/ATCC, subsequent test date): 4.12 µM
- IC50 (NCI-H322M; [5]): 2.39 µM
- IC50 (NCI-H322M; NCI-H322M, subsequent test date): 1.97 µM
- IC50 (DMS-273; DMS-273, subsequent test date): 0.99 µM
- IC50 (HCT-15; 48 h, Colon Cancer HCT-15): > 10 µM
- IC50 (HCT-15; HCT-15, subsequent test date): > 100 µM
- IC50 (NCI-H23; [6]): 0.96 µM
- IC50 (NCI-H23; NCI-H23, subsequent test date): 2.35 µM
- IC50 (DLD-1): 4.34 µM
- IC50 (SF-295): 4.1 µM

SMILES: CN(C)CCNC(=O)c1nc(NC(=O)c2nc(NC(=O)c3nc(NC(=O)CCCc4ccc(N(CCCl)CCCl)cc4)cn3C)cn2C)cn1C [Compound 10, N-(N',N'-dimethylaminoethyl)-1-methyl-4-{1-methyl-4-[4-(4,4-bis(2-chloroethyl)aminophenyl-1-butanamido)-1-methylimidazole-2-carboxamido]imidazole-2-carboxamido}imidazole-2-carboxamide]
- IC50 [1]: 28 µM
- IC50 (MALME-3M; 48 h, Melanoma MALME-3M): 52.7 µM
- IC50 (HCT-116): 5.76 µM
- IC50 (EKVX; [2]): 87.8 µM
- IC50 (KM20L2): 8.63 µM
- IC50 (Molt-4): 3.19 µM
- IC50 (HT29; 48 h, Colon Cancer HT29): 51 µM
- IC50 (U251; 48 h, CNS Cancer U251): 5.27 µM
- IC50 (COLO-205; 48 h, Colon Cancer COLO-205): 11.4 µM
- IC50 (SW-620; 48 h, Colon Cancer SW-620): 9.3 µM
- IC50 (HOP-62): 44 µM
- IC50 (XF498; 48 h, CNS Cancer XF498): 5.79 µM
- IC50 (HCC-2998; 48 h, Colon Cancer HCC-2998): 38.5 µM
- IC50 (SF-268): 31.3 µM
- IC50 (NCI-H226; 48 h, Non-Small Cell Lung Cancer NCI-H226): 67.5 µM
- IC50 (K-562): 7.05 µM
- IC50 (DMS-114; 48 h, Small Cell Lung Cancer DMS-114): 7.49 µM
- IC50 (KM12; 48 h, Colon Cancer KM12): 24.1 µM
- IC50 (SF-539; 48 h, CNS Cancer SF-539): 6.13 µM
- IC50 (NCI-H460; [3]): 6.13 µM
- IC50 (A549/ATCC; [4]): 10.7 µM
- IC50 (NCI-H322M; [5]): 23.9 µM
- IC50 (DMS-273; 48 h, Small Cell Lung Cancer DMS-273): 6.78 µM
- IC50 (HCT-15; 48 h, Colon Cancer HCT-15): 45.3 µM
- IC50 (NCI-H23; [6]): 34.8 µM
- IC50 (DLD-1): 42.2 µM
- IC50 (SF-295): 9.74 µM
